Columns and labels:
[1] = type: physicochemical
From the text: The manufacture of an amorphous solid dispersion containing VX-950 presented several challenges. […] Therefore, an appropriate solvent or solvent mixture is crucial to optimizing the processing and production of a solid dispersion.

[2] = Chemical reactivity of VX-950 with alcohol solvents; type: physicochemical; conditions: MeOH, EtOH, iPrOH
From the text: The manufacture of an amorphous solid dispersion containing VX-950 presented several challenges. […] Therefore, an appropriate solvent or solvent mixture is crucial to optimizing the processing and production of a solid dispersion. In preferred processes, the solvent includes a volatile solvent. In some embodiments, the solvent includes a mixture of volatile solvents. Preferable solvents include those that can dissolve both VX-950 and the polymers. Suitable solvents include those described above, for example, methylene chloride, acetone, etc. In more preferred processes, the solvent is a mixture of methylene chloride and acetone. The percent weight ratio of methylene chloride:acetone can be for example, about 100:0, about 90:10, about 80:20, about 70:30, about 60:40, and is preferably about 80:20 or about 70:30. The solvent or solvent mixture can also contain a non volatile solvent, such as glacial acetic acid. The organic acid or polar solvent solvent can be, e.g., up to about 5%, up to about 10%, or up to about 15% by weight of the solvent mixture. For example, a solvent mixture can contain a percent weight ratio of methylene chloride:acetone:glacial acetic acid of about 67:28:5 or 63:27:10. […] Such a solvent should not contain an OH group or a similarly reactive moiety. In these processes, therefore, a preferred solvent is other than an alcohol.

[3] = in vivo; conditions: rat, po

aqueous solubility [1]: virtually undetectable | pH dependence of aqueous solubility [1]: not pH-dependent | solubility in water [1]: highly insoluble | bioavailability [3]: < 0.5%
SMILES: CCC[C@H](NC(=O)[C@@H]1[C@H]2CCC[C@H]2CN1C(=O)[C@@H](NC(=O)[C@@H](NC(=O)c1cnccn1)C1CCCCC1)C(C)(C)C)C(=O)C(=O)NC1CC1 [VX-950]
solubility in water or most other conventional organic solvents [1]: does not dissolve to a significant amount | chemical reactivity with alcohols [2]: has shown chemical reactivity with some alcohols
